{
  "source": "paper PMC5564600",
  "about": "(Oncotarget, 2017)",
  "experiment_in_all_cases": "biochemical",
  "format_in_all_cases": "binding",
  "key": {"panel of 442 kinases [1]": {"molecular_target": "T1, panel of 442 kinases (Homo sapiens, UniProt Q9H3Y6)", "T1 construct": "purchased Ambit Biosciences (scanMAXX KINOMEscan)", "T1 sequence (Q9H3Y6 whole entry)": "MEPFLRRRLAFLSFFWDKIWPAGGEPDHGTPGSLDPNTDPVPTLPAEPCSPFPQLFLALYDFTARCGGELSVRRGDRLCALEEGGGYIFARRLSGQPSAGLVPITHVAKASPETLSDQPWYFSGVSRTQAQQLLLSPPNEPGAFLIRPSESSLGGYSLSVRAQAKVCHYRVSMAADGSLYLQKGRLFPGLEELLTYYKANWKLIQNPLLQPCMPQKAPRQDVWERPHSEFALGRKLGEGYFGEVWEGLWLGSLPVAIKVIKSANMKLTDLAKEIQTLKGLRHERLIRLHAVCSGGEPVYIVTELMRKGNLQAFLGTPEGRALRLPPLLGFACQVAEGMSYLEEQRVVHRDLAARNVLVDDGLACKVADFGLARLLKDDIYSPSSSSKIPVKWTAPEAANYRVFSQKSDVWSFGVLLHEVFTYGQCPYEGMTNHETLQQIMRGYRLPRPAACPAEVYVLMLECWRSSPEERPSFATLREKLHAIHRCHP", "settings": "kinase SRMS; for remaining activity at 1 µM: read-out: SRMS (% of control at 1 µM)"}, "panel of 442 kinases [2]": {"molecular_target": "T2, panel of 442 kinases (Homo sapiens, UniProt P41743)", "T2 construct": "purchased Ambit Biosciences (scanMAXX KINOMEscan)", "T2 sequence (P41743 1-596)": "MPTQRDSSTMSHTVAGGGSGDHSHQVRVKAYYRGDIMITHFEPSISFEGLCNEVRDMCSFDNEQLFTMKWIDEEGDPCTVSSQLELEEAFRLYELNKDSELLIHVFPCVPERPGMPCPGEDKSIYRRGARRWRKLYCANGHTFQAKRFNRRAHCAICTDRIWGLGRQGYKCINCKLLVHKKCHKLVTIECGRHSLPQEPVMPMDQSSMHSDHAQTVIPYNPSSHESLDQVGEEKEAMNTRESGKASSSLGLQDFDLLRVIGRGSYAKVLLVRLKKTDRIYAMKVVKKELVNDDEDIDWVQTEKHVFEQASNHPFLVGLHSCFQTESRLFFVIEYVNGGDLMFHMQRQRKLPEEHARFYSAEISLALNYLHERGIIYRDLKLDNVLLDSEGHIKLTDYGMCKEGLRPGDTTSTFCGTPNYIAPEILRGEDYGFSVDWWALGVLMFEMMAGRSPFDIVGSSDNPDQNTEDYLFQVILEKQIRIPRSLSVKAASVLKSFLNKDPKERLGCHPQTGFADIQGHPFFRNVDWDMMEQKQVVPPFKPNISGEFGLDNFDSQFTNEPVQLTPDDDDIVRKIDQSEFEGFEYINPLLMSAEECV", "settings": "kinase PRKCI; for remaining activity at 1 µM: read-out: PRKCI (% of control at 1 µM)"}, "panel of 442 kinases [3]": {"molecular_target": "T3, panel of 442 kinases (Homo sapiens, UniProt Q9BYT3)", "T3 construct": "purchased Ambit Biosciences (scanMAXX KINOMEscan)", "T3 sequence (Q9BYT3 whole entry)": "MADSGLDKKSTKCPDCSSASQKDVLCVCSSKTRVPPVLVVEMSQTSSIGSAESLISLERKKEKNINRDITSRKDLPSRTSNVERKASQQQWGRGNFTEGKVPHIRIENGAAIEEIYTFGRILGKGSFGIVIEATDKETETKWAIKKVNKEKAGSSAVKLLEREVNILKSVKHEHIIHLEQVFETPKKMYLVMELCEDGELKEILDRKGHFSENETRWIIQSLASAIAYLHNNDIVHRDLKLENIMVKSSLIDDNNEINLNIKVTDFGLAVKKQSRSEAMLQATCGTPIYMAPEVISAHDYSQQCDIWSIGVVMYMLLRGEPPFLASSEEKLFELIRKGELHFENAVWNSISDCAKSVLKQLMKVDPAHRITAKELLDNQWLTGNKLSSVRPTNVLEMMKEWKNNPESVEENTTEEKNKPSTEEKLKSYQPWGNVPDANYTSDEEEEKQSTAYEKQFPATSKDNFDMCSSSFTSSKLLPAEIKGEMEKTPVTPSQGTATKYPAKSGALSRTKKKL", "settings": "kinase STK33; for remaining activity at 1 µM: read-out: STK33 (% of control at 1 µM)"}, "panel of 442 kinases [4]": {"molecular_target": "T4, panel of 442 kinases (Homo sapiens, UniProt O14920)", "T4 construct": "purchased Ambit Biosciences (scanMAXX KINOMEscan)", "T4 sequence (O14920 1-756)": "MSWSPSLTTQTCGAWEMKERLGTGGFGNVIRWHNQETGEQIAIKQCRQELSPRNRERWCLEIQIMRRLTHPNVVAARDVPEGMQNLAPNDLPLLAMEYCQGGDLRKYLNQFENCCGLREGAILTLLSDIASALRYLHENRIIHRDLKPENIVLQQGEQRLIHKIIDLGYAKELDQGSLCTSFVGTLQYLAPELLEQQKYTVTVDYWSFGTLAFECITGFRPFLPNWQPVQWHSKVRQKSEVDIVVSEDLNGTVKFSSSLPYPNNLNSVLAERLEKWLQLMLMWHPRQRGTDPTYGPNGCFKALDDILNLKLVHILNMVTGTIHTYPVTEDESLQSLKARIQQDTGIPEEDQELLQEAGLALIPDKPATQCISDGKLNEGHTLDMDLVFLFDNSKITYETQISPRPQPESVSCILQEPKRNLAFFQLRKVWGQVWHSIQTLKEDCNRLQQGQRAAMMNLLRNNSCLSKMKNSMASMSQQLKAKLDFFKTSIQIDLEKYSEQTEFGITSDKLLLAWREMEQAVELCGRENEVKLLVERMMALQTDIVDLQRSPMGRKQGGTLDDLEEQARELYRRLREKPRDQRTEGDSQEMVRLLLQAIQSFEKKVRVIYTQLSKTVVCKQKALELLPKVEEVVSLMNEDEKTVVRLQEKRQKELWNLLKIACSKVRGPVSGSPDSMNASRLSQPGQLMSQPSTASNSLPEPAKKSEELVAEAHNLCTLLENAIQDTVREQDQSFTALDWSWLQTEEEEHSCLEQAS", "settings": "kinase IKK-beta; for remaining activity at 1 µM: read-out: % of control at 1 µM"}, "panel of 442 kinases [5]": {"molecular_target": "T5, panel of 442 kinases (Homo sapiens, UniProt Q8TD08)", "T5 construct": "purchased Ambit Biosciences (scanMAXX KINOMEscan)", "T5 sequence (Q8TD08 1-544)": "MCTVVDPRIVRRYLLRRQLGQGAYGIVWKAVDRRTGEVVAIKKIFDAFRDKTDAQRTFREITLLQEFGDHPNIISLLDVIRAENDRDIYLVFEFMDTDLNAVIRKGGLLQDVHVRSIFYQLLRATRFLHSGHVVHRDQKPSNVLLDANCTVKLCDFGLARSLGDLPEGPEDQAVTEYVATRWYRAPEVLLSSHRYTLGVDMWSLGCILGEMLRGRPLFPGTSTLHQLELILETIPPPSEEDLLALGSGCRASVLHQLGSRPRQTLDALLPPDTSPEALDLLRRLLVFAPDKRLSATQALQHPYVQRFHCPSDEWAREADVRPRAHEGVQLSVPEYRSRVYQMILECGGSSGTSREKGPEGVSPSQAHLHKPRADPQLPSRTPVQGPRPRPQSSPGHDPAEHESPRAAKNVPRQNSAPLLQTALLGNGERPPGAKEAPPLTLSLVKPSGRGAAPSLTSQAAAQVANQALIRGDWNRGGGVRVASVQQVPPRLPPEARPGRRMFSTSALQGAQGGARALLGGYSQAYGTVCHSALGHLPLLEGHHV", "settings": "ERK8; for remaining activity at 1 µM: read-out: % of control at 1 µM"}, "panel of 442 kinases [6]": {"molecular_target": "T6, panel of 442 kinases (Homo sapiens, UniProt Q8IY84)", "T6 construct": "purchased Ambit Biosciences (scanMAXX KINOMEscan)", "T6 sequence (Q8IY84 whole entry)": "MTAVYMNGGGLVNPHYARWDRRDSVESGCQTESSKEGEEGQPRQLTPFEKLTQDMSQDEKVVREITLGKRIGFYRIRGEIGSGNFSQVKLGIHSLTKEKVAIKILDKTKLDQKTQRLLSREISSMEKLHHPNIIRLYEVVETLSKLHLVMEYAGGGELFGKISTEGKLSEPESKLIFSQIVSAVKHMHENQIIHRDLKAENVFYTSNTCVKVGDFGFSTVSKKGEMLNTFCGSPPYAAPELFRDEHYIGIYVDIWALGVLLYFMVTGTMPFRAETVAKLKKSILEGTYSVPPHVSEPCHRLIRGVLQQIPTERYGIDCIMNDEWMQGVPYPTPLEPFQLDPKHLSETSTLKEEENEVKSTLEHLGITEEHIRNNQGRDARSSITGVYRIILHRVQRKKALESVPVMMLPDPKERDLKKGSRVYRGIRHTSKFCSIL", "settings": "kinase NIM1; for remaining activity at 1 µM: read-out: % of control at 1 µM"}, "panel of 442 kinases [7]": {"molecular_target": "T7, panel of 442 kinases (Homo sapiens, UniProt Q9Y2U5)", "T7 construct": "purchased Ambit Biosciences (scanMAXX KINOMEscan)", "T7 sequence (Q9Y2U5 1-619)": "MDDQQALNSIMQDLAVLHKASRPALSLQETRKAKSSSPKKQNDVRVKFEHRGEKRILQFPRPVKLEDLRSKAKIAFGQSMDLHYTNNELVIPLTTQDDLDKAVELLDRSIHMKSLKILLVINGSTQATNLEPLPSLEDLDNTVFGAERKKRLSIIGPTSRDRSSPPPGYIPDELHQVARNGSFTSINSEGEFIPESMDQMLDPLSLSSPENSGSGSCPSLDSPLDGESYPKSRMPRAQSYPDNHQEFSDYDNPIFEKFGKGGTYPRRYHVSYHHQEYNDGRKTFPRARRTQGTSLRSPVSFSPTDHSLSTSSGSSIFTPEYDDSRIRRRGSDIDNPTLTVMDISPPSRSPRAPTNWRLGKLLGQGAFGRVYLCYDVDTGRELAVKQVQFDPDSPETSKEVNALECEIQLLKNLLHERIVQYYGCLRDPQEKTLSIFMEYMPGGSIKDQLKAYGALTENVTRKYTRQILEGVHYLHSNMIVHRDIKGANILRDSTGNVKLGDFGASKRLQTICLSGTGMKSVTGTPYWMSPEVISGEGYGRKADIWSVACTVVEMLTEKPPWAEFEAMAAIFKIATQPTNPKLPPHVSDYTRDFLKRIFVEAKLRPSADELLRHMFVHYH", "settings": "kinase MAP3K2; for remaining activity at 1 µM: read-out: % of control at 1 µM"}, "[8]": {"settings": "10 µM, read-out: % of control at 10 µM"}},
  "data": [
    {"smiles": "Nc1cc(C(F)(F)F)c(-c2cc(N3CCOCC3)nc(N3CCOCC3)n2)cn1", "note": "[Buparlisib]", "values": [
      {"measurement": "remaining activity at 1 µM", "setting": "panel of 442 kinases [1]", "value": 100, "unit": "%"},
      {"measurement": "remaining activity at 10 µM", "setting": "panel of 442 kinases [1]; 10 µM, read-out: SRMS (% of control at 10 µM)", "value": 100, "unit": "%"},
      {"measurement": "remaining activity at 1 µM", "setting": "panel of 442 kinases [2]", "value": 90, "unit": "%"},
      {"measurement": "remaining activity at 10 µM", "setting": "panel of 442 kinases [2]; 10 µM, read-out: PRKCI (% of control at 10 µM)", "value": 100, "unit": "%"},
      {"measurement": "remaining activity at 1 µM", "setting": "panel of 442 kinases [3]", "value": 90, "unit": "%"},
      {"measurement": "remaining activity at 10 µM", "setting": "panel of 442 kinases [3]; 10 µM, read-out: STK33 (% of control at 10 µM)", "value": 97, "unit": "%"},
      {"measurement": "remaining activity at 1 µM", "setting": "panel of 442 kinases [4]", "value": 92, "unit": "%"},
      {"measurement": "remaining activity at 10 µM", "setting": "panel of 442 kinases [4]; [8]", "value": 100, "unit": "%"},
      {"measurement": "remaining activity at 1 µM", "setting": "panel of 442 kinases [5]", "value": 100, "unit": "%"},
      {"measurement": "remaining activity at 10 µM", "setting": "panel of 442 kinases [5]; [8]", "value": 100, "unit": "%"},
      {"measurement": "remaining activity at 1 µM", "setting": "panel of 442 kinases [6]", "value": 89, "unit": "%"},
      {"measurement": "remaining activity at 10 µM", "setting": "panel of 442 kinases [6]; [8]", "value": 86, "unit": "%"},
      {"measurement": "remaining activity at 1 µM", "setting": "panel of 442 kinases [7]", "value": 100, "unit": "%"},
      {"measurement": "remaining activity at 10 µM", "setting": "panel of 442 kinases [7]; [8]", "value": 100, "unit": "%"}
    ]},
    {"smiles": "Cn1c(=O)n(-c2ccc(C(C)(C)C#N)cc2)c2c3cc(-c4cnc5ccccc5c4)ccc3ncc21", "note": "[Dactolisib, 2-methyl-2-[4-(3-methyl-2-oxo-8-quinolin-3-yl-2,3-dihydroimidazo[4,5-c]quinolin-1-yl)-phenyl] propionitrile]", "values": [
      {"measurement": "remaining activity at 1 µM", "setting": "panel of 442 kinases [1]", "value": 88, "unit": "%"},
      {"measurement": "remaining activity at 1 µM", "setting": "panel of 442 kinases [2]", "value": 86, "unit": "%"},
      {"measurement": "remaining activity at 1 µM", "setting": "panel of 442 kinases [3]", "value": 100, "unit": "%"},
      {"measurement": "remaining activity at 1 µM", "setting": "panel of 442 kinases [4]", "value": 73, "unit": "%"},
      {"measurement": "remaining activity at 1 µM", "setting": "panel of 442 kinases [5]", "value": 86, "unit": "%"},
      {"measurement": "remaining activity at 1 µM", "setting": "panel of 442 kinases [6]", "value": 100, "unit": "%"},
      {"measurement": "remaining activity at 1 µM", "setting": "panel of 442 kinases [7]", "value": 72, "unit": "%"}
    ]},
    {"smiles": "COc1ncc(-c2ccc3nccc(-c4ccnnc4)c3c2)cc1NS(=O)(=O)c1ccc(F)cc1F", "note": "[Omipalisib]", "values": [
      {"measurement": "remaining activity at 1 µM", "setting": "panel of 442 kinases [1]", "value": 90, "unit": "%"},
      {"measurement": "remaining activity at 1 µM", "setting": "panel of 442 kinases [2]", "value": 100, "unit": "%"},
      {"measurement": "remaining activity at 1 µM", "setting": "panel of 442 kinases [3]", "value": 100, "unit": "%"},
      {"measurement": "remaining activity at 1 µM", "setting": "panel of 442 kinases [4]", "value": 100, "unit": "%"},
      {"measurement": "remaining activity at 1 µM", "setting": "panel of 442 kinases [5]", "value": 100, "unit": "%"},
      {"measurement": "remaining activity at 1 µM", "setting": "panel of 442 kinases [6]", "value": 100, "unit": "%"},
      {"measurement": "remaining activity at 1 µM", "setting": "panel of 442 kinases [7]", "value": 100, "unit": "%"}
    ]},
    {"smiles": "FC(F)c1nc2ccccc2n1-c1nc(N2CCOCC2)nc(N2CCOCC2)n1", "note": "[ZSTK474, 2-(difluoromethyl)-1-[4,6-di(4-morpholinyl)-1,3,5-triazin-2-yl]-1H-benzimidazole]", "values": [
      {"measurement": "remaining activity at 1 µM", "setting": "panel of 442 kinases [1]", "value": 80, "unit": "%"},
      {"measurement": "remaining activity at 1 µM", "setting": "panel of 442 kinases [2]", "value": 100, "unit": "%"},
      {"measurement": "remaining activity at 1 µM", "setting": "panel of 442 kinases [3]", "value": 100, "unit": "%"},
      {"measurement": "remaining activity at 1 µM", "setting": "panel of 442 kinases [4]", "value": 88, "unit": "%"},
      {"measurement": "remaining activity at 1 µM", "setting": "panel of 442 kinases [5]", "value": 100, "unit": "%"},
      {"measurement": "remaining activity at 1 µM", "setting": "panel of 442 kinases [6]", "value": 100, "unit": "%"},
      {"measurement": "remaining activity at 1 µM", "setting": "panel of 442 kinases [7]", "value": 74, "unit": "%"}
    ]}
  ]
}
